Patent publication US11464867B2, “Multimeric elastin-like polypeptides” (University of Southern California, priority 2018, dated 2022)
Like-named read-outs stand apart in the source and are kept apart here. Values belong to the compound of their own block, whether it stands above or below them.

What was measured:
[1] = CsA encapsulation by two-phase solvent evaporation, RP-HPLC; type: physicochemical; details: FIG. 16
Protocol: The mixture was incubated at 37° C. and samples were collected at different time points up to 48 h.
This was followed by high-speed centrifugation and filtration to remove the excess insoluble drug. […] The mobile phase flow rate was set to 1.0 ml/min. The linear gradient from 20% to 95% of methanol was applied from 0 to 5 min. Then the mobile phase was changed to 95% methanol isocratic flow for 10 min.
This was followed by high-speed centrifugation and filtration to remove the excess insoluble drug. The loading ratio was then determined by reversed-phase high-performance liquid chromatography (RP-HPLC) analysis method.
The drug loading capability of 2nd and 3rd generation carriers were also tested using the same encapsulation method detailed above employing the method of Shi, et al., 2013.

[2] = Phase transition temperature by optical density (UV-Vis, 350 nm) versus temperature; type: physicochemical; details: 25 μM; Table 5
Protocol: The temperature with the maximum positive slope was defined as the phase transition temperature for each condition. (FIG. 2B) The concentration-temperature phase diagram was determined for both ELPs, and fit to the following equation: Tt=b−m Log10[CELP].
Both ELPs at different concentrations (5 μM to 100 μM) were subject to a precisely controlled temperature increase from 25 to 75° C. at a rate of 1° C./min. The Tt of ELPs is defined as the temperature at which the first derivative of the optical density with respect to the temperature reaches a maximum.

[3] = Isothermal titration calorimetry of 5FA/Rapa interaction; type: binding; details: ITC
Text: Using Isothermal Titration calorimetry (ITC), the binding stoichiometry of 5FA/Rapa interaction was estimated to be 5. […] An overall negative Gibbs free energy (−10 kJ/mol interactions) indicates FKBP/Rapa binding is thermodynamically favorable.

Pin1 = Pin1 (Homo sapiens, UniProt Q13526); details: cited from earlier work
[4] = cited from earlier work
[5] = test system: IL-2 secretion, Jurkat cells; assay: IL-2 secretion assay in activated Jurkat cells (ELISA); type: cell-based; details: Homo sapiens, n=3, mean±SD
Protocol: Upon stimulation, Jurkat cells produce IL-2.
IL-2 concentration in culture media is then assessed using ELISA assay.

[6] = Multivariate fit of the phase diagram of ELP monoblock copolymers; type: physicochemical
Text: The Tt of the ELP component can be modified by varying ELP chain length, as the Tt generally increases with decreasing MW. For polypeptides having a molecular weight >100,000, the hydrophobicity scale developed by Urry et al. (PCT/US96/05186, which is hereby incorporated by reference in its entirety) is preferred for predicting the approximate Tt of a specific ELP sequence. However, in some embodiments, ELP component length can be kept relatively small, while maintaining a target Tt, by incorporating a larger fraction of hydrophobic guest residues (e.g., amino acid residues having hydrophobic side chains) in the ELP sequence. For polypeptides having a molecular weight <100,000, the Tt may be predicted or determined by the following function:
[formula] where Tc is a critical transition temperature, m is the dependence on the natural logarithm of concentration, n is the dependence on the inverse of the ELP length l, and k is an interaction term between length and concentration.

Chain of Pin1 (Q13526 whole entry): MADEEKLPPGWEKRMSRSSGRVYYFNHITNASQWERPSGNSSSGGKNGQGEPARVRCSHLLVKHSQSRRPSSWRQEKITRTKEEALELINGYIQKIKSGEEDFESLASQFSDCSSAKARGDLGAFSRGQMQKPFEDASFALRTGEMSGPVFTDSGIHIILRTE

Compound: 3(CA)C: 3rd generation carrier CypA-A24-CypA-A24-CypA-A24-CypA, SEQ ID NO: 9
CsA loading ratio [1]: 209.0%

binding enthalpy [3]: −58 kJ/mol interactions
Kd ([3]; true KD likely lower, beyond limit of detection, read-out: equilibrium dissociation constant (KD)): ≤ 1.5 nM
Compound: 5FA: 5 FKBP domains linked by ELP A24, SEQ ID NO: 10
Transition temperature at 25 μM [2]: 53.2 °C
Gibbs free energy [3]: −10 kJ/mol interactions
TAS [3]: −48 kJ/mol interactions

Compound: 5FV: 5 FKBP domains linked by ELP V24, SEQ ID NO: 11
Transition temperature at 25 μM [2]: 27.7 °C

Compound: CC1=C(/C=C/C(C)=C/C=C/C(C)=C/C(=O)O)C(C)(C)CCC1 [ATRA, All trans retinoic acid]
affinity to Pin1 (Pin1): sun-micromolar affinity
AUC on 28th day of administration relative to AUC on day 1 ([4]; daily treatment): 10%
half-life ([4]; in vivo): 45 min

IC50 ([5]; PMA and Ionomycin, 6 h, read-out: IC50, IL-2 secretion assay): 0.522 ± 0.152 nM
IC50 ([5]; FIG. 10 legend, read-out: IC50, IL-2 inhibition): 0.522 ± 0.152 nM
Compound: C/C=C/C[C@@H](C)[C@@H](O)[C@H]1C(=O)N[C@@H](CC)C(=O)N(C)CC(=O)N(C)[C@@H](CC(C)C)C(=O)N[C@@H](C(C)C)C(=O)N(C)[C@@H](CC(C)C)C(=O)N[C@@H](C)C(=O)N[C@H](C)C(=O)N(C)[C@@H](CC(C)C)C(=O)N(C)[C@@H](CC(C)C)C(=O)N(C)[C@@H](C(C)C)C(=O)N1C [CsA, Cyclosporin A]

Compound: (Val-Pro-Gly-Ala-Gly): ELP monoblock library, SEQ ID NO: 61 (VPGAG)
Tc ([6]; critical transition temperature): 40.5 ± 1.6 °C
n ([6]; dependence on inverse of ELP length): 7009 ± 345 °C pentamers
m ([6]; dependence on natural logarithm of concentration): 0 ° C./ln(μM)
K ([6]; interaction term between length and concentration): −850.1 ± 51.5 °C pentamers/ln(μM)
